Publication PMC2171038 (Traffic (Copenhagen, Denmark), 2007)

Target: T1, protoporphyrinogen oxidase (Saccharomyces cerevisiae, UniProt P40012)
T1 sequence (P40012 1-539): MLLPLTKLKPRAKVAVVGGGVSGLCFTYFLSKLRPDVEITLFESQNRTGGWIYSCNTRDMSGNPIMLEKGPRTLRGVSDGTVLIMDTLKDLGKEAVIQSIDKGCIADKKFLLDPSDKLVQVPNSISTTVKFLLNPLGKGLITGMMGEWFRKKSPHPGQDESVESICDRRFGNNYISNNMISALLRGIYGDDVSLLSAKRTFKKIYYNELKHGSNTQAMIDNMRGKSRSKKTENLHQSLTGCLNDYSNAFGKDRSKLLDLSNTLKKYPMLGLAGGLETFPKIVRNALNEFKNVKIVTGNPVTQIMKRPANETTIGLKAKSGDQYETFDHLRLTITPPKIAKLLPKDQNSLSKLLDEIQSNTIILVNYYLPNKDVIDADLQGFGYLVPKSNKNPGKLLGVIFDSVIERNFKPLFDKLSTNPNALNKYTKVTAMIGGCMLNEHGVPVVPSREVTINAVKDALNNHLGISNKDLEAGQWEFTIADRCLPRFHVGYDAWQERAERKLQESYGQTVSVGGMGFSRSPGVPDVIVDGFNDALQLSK
Test: fluorimetric protoporphyrinogen oxidase activity assay
Assay type: biochemical

- IC50: ~100 nM
Compound: CC(=O)N(O)CCCCCNC(=O)CCC(=O)N(O)CCCCCNC(=O)CCC(=O)N(O)CCCCCNC(=O)c1cc(Oc2ccc(C(F)(F)F)cc2Cl)ccc1[N+](=O)[O-] [compound 1, DFOB-AF]
